Reference: US20090018134A1, “Compounds - 945” (AstraZeneca AB, priority 2007, published 2009)
pIC50: −log10 of the molar value.

molecular target: T1, mTOR (Homo sapiens, UniProt P42345); assay: In Vitro mTOR Kinase Assay (Echo), Test (a)(ii); assay type: biochemical; details: not given
T1 construct: FLAG; made in house
Method in brief: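 Compounds were acoustically dispensed, then incubated with FLAG-tagged mTOR (1362-2549) for 2 hours at room temperature. Reactions were quenched with EDTA plus detection antibody and AlphaScreen beads and left overnight in the dark before reading. Loss of phospho-T389 signal gave IC50 values.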

T1 sequence (P42345 1362-2549): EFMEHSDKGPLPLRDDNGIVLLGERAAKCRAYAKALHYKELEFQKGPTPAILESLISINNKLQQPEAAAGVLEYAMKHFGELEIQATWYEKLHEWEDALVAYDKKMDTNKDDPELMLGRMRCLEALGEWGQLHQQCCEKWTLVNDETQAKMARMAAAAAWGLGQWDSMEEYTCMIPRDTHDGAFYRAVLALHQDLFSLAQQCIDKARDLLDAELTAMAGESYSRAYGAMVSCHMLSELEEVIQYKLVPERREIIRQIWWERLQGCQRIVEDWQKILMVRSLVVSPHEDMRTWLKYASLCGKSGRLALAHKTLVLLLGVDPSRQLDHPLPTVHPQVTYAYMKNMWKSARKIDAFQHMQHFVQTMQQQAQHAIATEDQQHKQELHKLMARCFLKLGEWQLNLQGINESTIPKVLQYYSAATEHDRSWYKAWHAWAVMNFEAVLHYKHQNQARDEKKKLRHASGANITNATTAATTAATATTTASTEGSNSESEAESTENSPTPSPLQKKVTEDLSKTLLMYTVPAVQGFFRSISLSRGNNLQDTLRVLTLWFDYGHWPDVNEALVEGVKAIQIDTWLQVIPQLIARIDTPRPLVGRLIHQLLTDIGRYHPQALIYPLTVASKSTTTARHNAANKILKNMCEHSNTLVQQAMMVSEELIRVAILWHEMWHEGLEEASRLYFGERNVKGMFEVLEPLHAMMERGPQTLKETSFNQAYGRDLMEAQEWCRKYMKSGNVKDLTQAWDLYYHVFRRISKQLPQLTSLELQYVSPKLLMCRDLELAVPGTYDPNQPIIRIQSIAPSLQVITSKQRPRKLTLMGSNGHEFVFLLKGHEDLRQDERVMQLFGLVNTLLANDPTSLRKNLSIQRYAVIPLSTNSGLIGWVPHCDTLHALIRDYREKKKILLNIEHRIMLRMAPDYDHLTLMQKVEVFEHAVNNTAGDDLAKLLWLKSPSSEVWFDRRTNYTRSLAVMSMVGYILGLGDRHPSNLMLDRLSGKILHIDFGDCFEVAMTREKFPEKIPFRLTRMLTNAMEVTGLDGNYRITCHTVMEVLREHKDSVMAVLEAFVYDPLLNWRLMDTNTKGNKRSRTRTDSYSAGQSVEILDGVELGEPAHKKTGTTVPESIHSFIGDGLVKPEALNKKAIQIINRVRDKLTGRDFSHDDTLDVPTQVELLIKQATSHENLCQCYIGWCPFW

Row | SMILES | pIC50
1 | C[C@H]1COCCN1c1cc(C2(S(=O)(=O)c3ccccc3)CC2)nc(-c2ccc(NC(=O)NCCCl)cc2)n1 [Example 36ee, 1-[4-[4-[1-(benzenesulfonyl)cyclopropyl]-6-[(3S)-3-methylmorpholin-4-yl]pyrimidin-2-yl]phenyl]-3-(2-chloroethyl)urea] | 8.02

same assay, conditions: table of enzyme assay Test (a)(ii); read-out: Test (a)(ii) IC50

Row | SMILES | pIC50
2 | C[C@H]1COCCN1c1cc(C2(S(=O)(=O)c3ccccc3)CCC2)nc(-c2ccc(NC(=O)NCc3ncc[nH]3)cc2)n1 [Example 36du, 1-[4-[4-[1-(benzenesulfonyl)cyclobutyl]-6-[(3S)-3-methylmorpholin-4-yl]pyrimidin-2-yl]phenyl]-3-(1H-imidazol-2-ylmethyl)urea] | 7.82
3 | C[C@H]1COCCN1c1cc(C2(S(=O)(=O)c3ccccc3)CC2)nc(-c2ccc(NC(=O)Nc3ccn(C)n3)cc2)n1 [Example 36dv, 1-[4-[4-[1-(benzenesulfonyl)cyclopropyl]-6-[(3S)-3-methylmorpholin-4-yl]pyrimidin-2-yl]phenyl]-3-(1-methypyrazol-3-yl)urea] | 8.37
4 | Cc1cc(NC(=O)Nc2ccc(-c3nc(N4CCOC[C@@H]4C)cc(C4(S(=O)(=O)c5ccccc5)CC4)n3)cc2)no1 [Example 36dw, 3-[4-[4-[1-(benzenesulfonyl)cyclopropyl]-6-[(3S)-3-methylmorpholin-4-yl]pyrimidin-2-yl]phenyl]-1-(5-methyl-1,2-oxazol-3-yl)urea] | 8.20
5 | C[C@H]1COCCN1c1cc(C2(S(=O)(=O)c3ccccc3)CC2)nc(-c2ccc(NC(=O)NCC(F)F)cc2)n1 [Example 36dx, 1-[4-[4-[1-(benzenesulfonyl)cyclopropyl]-6-[(3S)-3-methylmorpholin-4-yl]pyrimidin-2-yl]phenyl]-3-(2,2-difluoroethyl)urea] | 8.58
6 | C[C@H]1COCCN1c1cc(C2(S(=O)(=O)c3ccccc3)CC2)nc(-c2ccc(NC(=O)Nc3ncco3)cc2)n1 [Example 36dy, 1-[4-[4-[1-(benzenesulfonyl)cyclopropyl]-6-[(3S)-3-methylmorpholin-4-yl]pyrimidin-2-yl]phenyl]-3-(1,3-oxazol-2-yl)urea] | 8.20
7 | C[C@H]1COCCN1c1cc(C2(S(=O)(=O)c3ccccc3)CC2)nc(-c2ccc(NC(=O)Nc3ccon3)cc2)n1 [Example 36dz, 1-[4-[4-[1-(benzenesulfonyl)cyclopropyl]-6-[(3S)-3-methylmorpholin-4-yl]pyrimidin-2-yl]phenyl]-3-(1,2-oxazol-3-yl)urea] | 8.56
8 | C[C@H]1COCCN1c1cc(C2(S(=O)(=O)C3CC3)CCC2)nc(-c2ccc(NC(=O)NC3CC3)cc2)n1 [Example 36e, 3-cyclopropyl-1-[4-[4-(1-cyclopropylsulfonylcyclobutyl)-6-[(3S)-3-methylmorpholin-4-yl]pyrimidin-2-yl]phenyl]urea] | 8.18
9 | C[C@H]1COCCN1c1cc(C2(S(=O)(=O)c3ccccc3)CC2)nc(-c2ccc(NC(=O)NCC(F)(F)F)cc2)n1 [Example 36ea, 1-[4-[4-[1-(benzenesulfonyl)cyclopropyl]-6-[(3S)-3-methylmorpholin-4-yl]pyrimidin-2-yl]phenyl]-3-(2,2,2-trifluroethyl)urea] | 8.05
10 | C[C@H]1COCCN1c1cc(C2(S(=O)(=O)c3ccccc3)CC2)nc(-c2ccc(NC(=O)Nc3cn(C)cn3)cc2)n1 [Example 36eb, 1-[4-[4-[1-(benzenesulfonyl)cyclopropyl]-6-[(3S)-3-methylmorpholin-4-yl]pyrimidin-2-yl]phenyl]-3-(1-methylimidazol-4-yl)urea] | 8.51
11 | C[C@@H](CO)NC(=O)Nc1ccc(-c2nc(N3CCOC[C@@H]3C)cc(C3(S(=O)(=O)c4ccccc4)CC3)n2)cc1 [Example 36ec, 1-[4-[4-[1-(benzenesulfonyl)cyclopropyl]-6-[(3S)-3-methylmorpholin-4-yl]pyrimidin-2-yl]phenyl]-3-[(2S)-1-hydroxypropan-2-yl]urea] | 8.49
12 | C[C@H](CO)NC(=O)Nc1ccc(-c2nc(N3CCOC[C@@H]3C)cc(C3(S(=O)(=O)c4ccccc4)CC3)n2)cc1 [Example 36ed, 1-[4-[4-[1-(benzenesulfonyl)cyclopropyl]-6-[(3S)-3-methylmorpholin-4-yl]pyrimidin-2-yl]phenyl]-3-[(2R)-1-hydroxypropan-2-yl]urea] | 8.15
13 | CCS(=O)(=O)C1(c2cc(N3CCOC[C@@H]3C)nc(-c3ccc(NC(=O)NCCF)cc3)n2)CC1 [Example 36ef, 1-[4-[4-(1-ethylsulfonylcyclopropyl)-6-[(3S)-3-methylmorpholin-4-yl]pyrimidin-2-yl]phenyl]-3-(2-fluorethyl)urea] | 8.08
14 | CCS(=O)(=O)C1(c2cc(N3CCOC[C@@H]3C)nc(-c3ccc(NC(=O)NCC(F)F)cc3)n2)CC1 [Example 36eg, 3-(2,2-difluoroethyl)-1-[4-[4-(1-ethylsulfonylcyclopropyl)-6-[(3S)-3-methylmorpholin-4-yl]pyrimidin-2-yl]phenyl]urea] | 8.06
15 | C[C@H]1COCCN1c1cc(C2(S(=O)(=O)C3CC3)CCC2)nc(-c2ccc(NC(=O)NCCO)cc2)n1 [Example 36f, 1-[4-[4-(1-cyclopropylsulfonylcyclobutyl)-6-[(3S)-3-methylmorpholin-4-yl]pyrimidin-2-yl]phenyl]-3-(2-hydroxyethyl)urea] | 8.56
16 | C[C@H]1COCCN1c1cc(C2(S(=O)(=O)C3CC3)CCC2)nc(-c2ccc(NC(=O)NCCC#N)cc2)n1 [Example 36g, 3-(2-cyanoethyl)-1-[4-[4-(1-cyclopropylsulfonylcyclobutyl)-6-[(3S)-3-methylmorpholin-4-yl]pyrimidin-2-yl]phenyl]urea] | 8.08
17 | C[C@H]1COCCN1c1cc(C2(S(=O)(=O)C3CC3)CCC2)nc(-c2ccc(NC(=O)Nc3cnn(C)c3)cc2)n1 [Example 36h, 1-[4-[4-(1-cyclopropylsulfonylcyclobutyl)-6-[(3S)-3-methylmorpholin-4-yl]pyrimidin-2-yl]phenyl]-3-(1-methylpyrazol-4-yl)urea] | 8.50
18 | C[C@H]1COCCN1c1cc(C2(S(=O)(=O)C3CC3)CCC2)nc(-c2ccc(NC(=O)NCc3ncc[nH]3)cc2)n1 [Example 36i, 1-[4-[4-(1-cyclopropylsulfonylcyclobutyl)-6-[(3S)-3-methylmorpholin-4-yl]pyrimidin-2-yl]phenyl]-3-(1H-imidazol-2-ylmethyl)urea] | 7.29
19 | C[C@H]1COCCN1c1cc(C2(S(=O)(=O)C3CC3)CCCC2)nc(-c2ccc(NC(=O)NC3CC3)cc2)n1 [Example 36j, 3-cyclopropyl-1-[4-[4-(1-cyclopropylsulfonylcyclopentyl)-6-[(3S)-3-methylmorpholin-4-yl]pyrimidin-2-yl]phenyl]urea] | 7.74
20 | C[C@H]1COCCN1c1cc(C2(S(=O)(=O)C3CC3)CCCC2)nc(-c2ccc(NC(=O)NCCO)cc2)n1 [Example 36k, 1-[4-[4-(1-cyclopropylsulfonylcyclopentyl)-6-[(3S)-3-methylmorpholin-4-yl]pyrimidin-2-yl]phenyl]-3-(2-hydroxyethyl)urea] | 7.88
21 | C[C@H]1COCCN1c1cc(C2(S(=O)(=O)C3CC3)CCCC2)nc(-c2ccc(NC(=O)NCCC#N)cc2)n1 [Example 36l, 3-(2-cyanoethyl)-1-[4-[4-(1-cyclopropylsulfonylcyclopentyl)-6-[(3S)-3-methylmorpholin-4-yl]pyrimidin-2-yl]phenyl]urea] | 7.37
